Assay results as given in patent US20240207236A1, “COMPOUND FOR PREVENTING OR TREATING DIABETES” (ONCOCROSS CO., LTD., priority 2021, published 2024).

Legend:
Assay type in all cases: in vivo, mice (C57BL/6)
[1] = Body weight of mice in STZ-induced insulin-resistant diabetes model
Method: (§1) STZ (Sigma-aldrich, S0130, 40 mg/kg b.w., in 0.1 M citrate buffer pH 4.5) was intraperitoneally administered to 9-week-old male mice (C57BL/6) once/1 day for 5 days to perform a first disease induction. After 7 weeks of the first induction, a second induction was performed using the same method as the first induction. For 5 days of an STZ administration period for the first induction, 10% sucrose was administered as drinking water. In addition, after 14 days of the second administration, blood sugar was confirmed to confirm the induction rate, and the induced animals were separated into groups. Experimental substances (R)-4-{(R)-1-[7-(3,4,5-trimethoxy-phenyl)-[1,6] naphthyridine-5-yloxy]-ethyl}pyrrolidine-2-one (BI-1002494) and cromolyn (OC-101) were administered orally into the stomach at 10 mL/kg using an oral administration syringe (sonde) before 16:00 daily for 12 weeks at a frequency of 7 days/week at doses shown in Table 1 below, respectively, and dexamethasone was orally administered as a positive control substance.

[2] = Drinking water intake of mice in STZ-induced insulin-resistant diabetes model; set-up: unit not given here
Method: as §1

[3] = test system: animal model of insulin-resistant diabetes; experiment: Blood sugar, tail vein blood, blood sugar meter, 4 h fasting; set-up: blood sugar, Mean: unit not given here
Method: as §1
Before disease induction, excluding week 9 of administration of experimental substances to mice in each group of Example 1 above, after 2 weeks after the first induction (based on a first administration date), and after 6 weeks and 2 weeks of the second induction (based on the first administration date), blood was collected from the tail vein and blood sugar was measured using a blood sugar meter (Accu-Check, Roche), and fasting was performed for 4 hours from 9:30 a.m. to 1:30 p.m.

[4] = test system: animal model of insulin-resistant diabetes; experiment: Blood biochemistry, automated analyzer, at end of observation
Method: as §1
(§2) After the observation period for mice of each group in Example 1 was terminated, all surviving animals were fasted in the same manner as when measuring blood sugar, and then anesthetized by inhaling isoflurane, and blood was collected from the abdominal vena cava through laparotomy. After the blood collection was completed, the veins and arteries were cut under anesthesia and exsanguinated. The collected blood was left at room temperature for 30 minutes or more and then centrifuged at 3,000 rpm for 20 minutes. Thereafter, glucose, blood urea nitrogen (BUN), and creatinine were analyzed using an automated blood biochemistry analyzer (Hitachi 3100, Hitachi Co. Ltd., Japan). Indoxyl sulfate (a substance that was mainly produced in the intestines to cause kidney damage, and a substance that caused end-stage renal failure by advancing kidney function damage in patients with renal failure during hemodialysis) was analyzed using LC MS/MS. In addition, blood insulin was analyzed according to a method represented by a commercial Mouse Insulin ELISA KIT (#AKRIN-011T, Sibayagi Co. Ltd., Japan).

[5] = test system: animal model of insulin-resistant diabetes; experiment: Histopathological change of liver, kidney and pancreas (H&E); settings: count in group of 10 animals
Method: as §1
At the end of the observation period, the mice in each group of Example 1 were confirmed to be dead, and the liver, kidney, and pancreas were extracted and fixed with 10% neutral buffered formalin (NBF) in at least 20 times the tissue volume. The fixed tissue was sectioned to a thickness of approximately 4 mm and then produced into a paraffin block through general tissue processing and embedding processes. Thereafter, the tissue was sectioned to a thickness of 4 μm using a rotary microtome, and then H&E staining was performed, and histopathological changes were observed.

[6] = Feed intake of mice in STZ-induced insulin-resistant diabetes model; set-up: feed intake: unit not given here; settings: 50 mg/kg/day oral
Method: as §1

[7] = test system: animal model of insulin-resistant diabetes; experiment: Blood insulin (Mouse Insulin ELISA) and HOMA-IR; settings: 50 mg/kg
Method: as §1, §2

[8] = test system: animal model of insulin-resistant diabetes; experiment: Blood indoxyl sulfate by LC MS/MS; settings: 50 mg/kg/day oral, 12 weeks
Method: as §1, §2

[9] = 50 mg/kg/day oral, 12 weeks, blood

Compound: C[C@@H]1C[C@H]2[C@@H]3CCC4=CC(=O)C=C[C@]4(C)[C@@]3(F)[C@@H](O)C[C@]2(C)[C@@]1(O)C(=O)CO [Dexamethasone, reference compound]
- body weight, Mean ([1]; 2 mg/kg/day oral, week 0): 24 g
- body weight, Mean ([1]; 2 mg/kg/day oral, week 1): 23.5 g
- body weight, Mean ([1]; 2 mg/kg/day oral, week 2): 23.6 g
- body weight, Mean ([1]; 2 mg/kg/day oral, week 3): 23.6 g
- body weight, Mean ([1]; 2 mg/kg/day oral, week 4): 23.6 g
- body weight, Mean ([1]; 2 mg/kg/day oral, week 5): 23.7 g
- body weight, Mean ([1]; 2 mg/kg/day oral, week 6): 23.6 g
- body weight, Mean ([1]; 2 mg/kg/day oral, week 7): 23.8 g
- body weight, Mean ([1]; 2 mg/kg/day oral, week 9): 23.3 g
- drinking water intake, Mean ([2]; 2 mg/kg/day oral, week 0): 7.07
- drinking water intake, Mean ([2]; 2 mg/kg/day oral, week 1): 7.73
- drinking water intake, Mean ([2]; 2 mg/kg/day oral, week 2): 7.05
- drinking water intake, Mean ([2]; 2 mg/kg/day oral, week 3): 7.89
- drinking water intake, Mean ([2]; 2 mg/kg/day oral, week 4): 7.69
- drinking water intake, Mean ([2]; 2 mg/kg/day oral, week 5): 7.10
- drinking water intake, Mean ([2]; 2 mg/kg/day oral, week 6): 7.35
- drinking water intake, Mean ([2]; 2 mg/kg/day oral, week 7): 7.18
- drinking water intake, Mean ([2]; 2 mg/kg/day oral, week 8): 7.83
- drinking water intake, Mean ([2]; 2 mg/kg/day oral, week 9): 7.45
- drinking water intake, Mean ([2]; 2 mg/kg/day oral, week 10): 7.19
- blood sugar, Mean ([3]; 2 mg/kg/day oral, value column 2 of 6, head prints only weeks 0, 4, 8, 10): 309.1
- blood sugar, Mean ([3]; 2 mg/kg/day oral, value column 3 of 6, head prints only weeks 0, 4, 8, 10): 329.2
- blood sugar, Mean ([3]; 2 mg/kg/day oral, value column 4 of 6, head prints only weeks 0, 4, 8, 10): 336.9
- blood sugar, Mean ([3]; 2 mg/kg/day oral, value column 6 of 6, head prints only weeks 0, 4, 8, 10): 331.4
- blood sugar, Mean ([3]; 2 mg/kg/day oral, week 0): 307.1
- T-CHO, Mean ([4]; 2 mg/kg/day oral, 12 weeks, blood): 139.0 dL⁻¹
- Kidney Medullar apoptosis ([5]; 2 mg/kg (G3)): 1
- Kidney Medullar mineralization ([5]; 2 mg/kg (G3)): 2
- Kidney NHL ([5]; 2 mg/kg (G3)): 6
- Kidney bowman's capsule hyperplasia ([5]; 2 mg/kg (G3)): 2
- Kidney pappillary mineralization ([5]; 2 mg/kg (G3)): 0
- Liver Apoptosis ([5]; 2 mg/kg (G3)): 4
- Liver Cytoplasmic glycogen ([5]; 2 mg/kg (G3)): 0
- Liver Eosinophlic focus of cellular alteration ([5]; 2 mg/kg (G3)): 3
- Liver Mononuclear cell infiltrate ([5]; 2 mg/kg (G3)): 0
- Liver NHL ([5]; 2 mg/kg (G3)): 5
- Pancrease Apoptosis ([5]; 2 mg/kg (G3)): 0
- Pancrease NHL ([5]; 2 mg/kg (G3)): 8
- Pancrease islet degeneration ([5]; 2 mg/kg (G3)): 1
- Pancrease islet hypertrophy ([5]; 2 mg/kg (G3)): 0
- Pancrease islet, mononuclear cell infillitrate ([5]; 2 mg/kg (G3)): 1

Compound: O=C(O)c1cc(=O)c2c(OCC(O)COc3cccc4oc(C(=O)O)cc(=O)c34)cccc2o1 [OC-101, cromolyn, reference compound]
- body weight, Mean ([1]; 50 mg/kg/day oral, week 0): 23.9 g
- body weight, Mean ([1]; 50 mg/kg/day oral, week 1): 23.4 g
- body weight, Mean ([1]; 50 mg/kg/day oral, week 2): 23.5 g
- body weight, Mean ([1]; 50 mg/kg/day oral, week 3): 23.3 g
- body weight, Mean ([1]; 50 mg/kg/day oral, week 4): 23.5 g
- body weight, Mean ([1]; 50 mg/kg/day oral, week 5): 23.4 g
- body weight, Mean ([1]; 50 mg/kg/day oral, week 6): 23.5 g
- body weight, Mean ([1]; 50 mg/kg/day oral, week 7): 23.4 g
- body weight, Mean ([1]; 50 mg/kg/day oral, week 8): 23.2 g
- body weight, Mean ([1]; 50 mg/kg/day oral, week 9): 23 g
- feed intake ([6]; week 3): 5.47
- feed intake ([6]; week 4): 4.26
- feed intake ([6]; week 6): 4.29
- feed intake ([6]; week 9): 4.51
- drinking water intake, Mean ([2]; 50 mg/kg/day oral, week 0): 6.78
- drinking water intake, Mean ([2]; 50 mg/kg/day oral, week 1): 6.11
- drinking water intake, Mean ([2]; 50 mg/kg/day oral, week 2): 7.68
- drinking water intake, Mean ([2]; 50 mg/kg/day oral, week 3): 6.99
- drinking water intake, Mean ([2]; 50 mg/kg/day oral, week 4): 7.23
- drinking water intake, Mean ([2]; 50 mg/kg/day oral, week 5): 6.76
- drinking water intake, Mean ([2]; 50 mg/kg/day oral, week 6): 7.60
- drinking water intake, Mean ([2]; 50 mg/kg/day oral, week 7): 7.06
- drinking water intake, Mean ([2]; 50 mg/kg/day oral, week 8): 7.17
- drinking water intake, Mean ([2]; 50 mg/kg/day oral, week 9): 7.09
- drinking water intake, Mean ([2]; 50 mg/kg/day oral, week 10): 6.76
- blood sugar, Mean ([3]; 50 mg/kg/day oral, value column 2 of 6, head prints only weeks 0, 4, 8, 10): 336.8
- blood sugar, Mean ([3]; 50 mg/kg/day oral, week 0): 200.9
- GLU compared to the disease control group ([4]; 50 mg/kg): decreased statistically significantly
- ALT, Mean [4, 9]: 31.3 L⁻¹
- AST, Mean [4, 9]: 34.0 L⁻¹
- T-CHO, Mean [4, 9]: 24.2 dL⁻¹
- HOMA-IR compared with the disease control group [7]: decreased statistically significantly
- Indoxyl sulfate, Mean [8]: 0.8 µg/mL
- Kidney Medullar apoptosis ([5]; 50 mg/kg (G6, G7)): 0
- Kidney Medullar mineralization ([5]; 50 mg/kg (G6, G7)): 1
- Kidney NHL ([5]; 50 mg/kg (G6, G7)): 8
- Kidney bowman's capsule hyperplasia ([5]; 50 mg/kg (G6, G7)): 1
- Kidney pappillary mineralization ([5]; 50 mg/kg (G6, G7)): 0
- Liver Apoptosis ([5]; 50 mg/kg (G6, G7)): 2
- Liver Cytoplasmic glycogen ([5]; 50 mg/kg (G6, G7)): 0
- Liver Eosinophlic focus of cellular alteration ([5]; 50 mg/kg (G6, G7)): 1
- Liver Mononuclear cell infiltrate ([5]; 50 mg/kg (G6, G7)): 3
- Liver NHL ([5]; 50 mg/kg (G6, G7)): 5
- Pancrease Apoptosis ([5]; 50 mg/kg (G6, G7)): 0
- Pancrease NHL ([5]; 50 mg/kg (G6, G7)): 6
- Pancrease islet degeneration ([5]; 50 mg/kg (G6, G7)): 2
- Pancrease islet hypertrophy ([5]; 50 mg/kg (G6, G7)): 2
- Pancrease islet, mononuclear cell infillitrate ([5]; 50 mg/kg (G6, G7)): 1
